Measurements: US10111833B2, “Sildenafil sublingual spray formulations” (Insys Development Company, Inc., priority 2015, dated 2018)

How the values were obtained:
[1] = Impurity formation / standard stability testing (clarity, color, pH, assay, impurities); type: physicochemical; details: Drug Substance
Source text: In order to further determine the stability of Formulations 1, 3A, 3B, 5A, 5B, 5C, 5D and 5E, the formulations were subjected to standard stability testing to determine impurity levels. The results are below in Tables 7-11.

[2] = Freeze/thaw stability testing; type: physicochemical; details: Drug Substance
Source text: The results are below in Tables 13-18.

CCCc1nn(C)c2c(=O)[nH]c(-c3cc(S(=O)(=O)N4CCN(C)CC4)ccc3OCC)nc12 [Drug Substance, Sildenafil base]
Assay (% of initial Conc) [1]: 100.70%
Impurity A [1]: BQL (BQL = Below Quantification Limit (Limit of Quantification = 0.05%))
Impurity B [1]: ND (ND = Not Detected (Limit of Detection = 0.01%))
Impurity C [1]: BQL (BQL = Below Quantification Limit (Limit of Quantification = 0.05%))
Impurity D [1]: BQL (BQL = Below Quantification Limit (Limit of Quantification = 0.05%))
Total Impurities [1]: 0.00%
Unknown Impurity RRT 0.24 [1]: ND (ND = Not Detected (Limit of Detection = 0.01%))
Unknown Impurity RRT 0.61 [1]: ND (ND = Not Detected (Limit of Detection = 0.01%))
Physical appearance ([1]; first line of cell (clarity)): clear,
Physical appearance ([1]; second line of cell (color)): colorless
Color [2]: colorless
Physical appearance [2]: clear
